According to US20240350421A1, “Cationic Polymeric Nanoparticles and Their Uses in Treating Diseases” (University of Connecticut, priority 2021, published 2024):

Assay: Cell proliferation (trypan blue) assay in HeLa cells
Type: cell-based
Conditions: human, read-out: reduction in cell viability
Method: 200,000 PBMC cells were seeded in a plate (12 well) overnight and treated with 2 mg/mL blank F2 NPs and 150 μL of lipofectamine. After 24 h, cells were stained with trypan blue dye and total live cells were determined by cell counter (Bio-Rad, USA). For cytotoxicity assay in HeLa cells, 50,000 HeLa cells were seeded in plates (24 well) and treated with paclitaxel (PTX) F2 NPs for 24 h, and cell viability was measured by staining with trypan blue dye.

Compound: CC(=O)O[C@H]1C(=O)[C@@]2(C)[C@H]([C@H](OC(=O)c3ccccc3)[C@]3(O)C[C@H](OC(=O)[C@H](O)[C@@H](NC(=O)c4ccccc4)c4ccccc4)C(C)=C1C3(C)C)[C@]1(OC(C)=O)CO[C@@H]1C[C@@H]2O [PTX suspension, paclitaxel]
- cytotoxicity at 24 h: 17%
